Data taken from patent US20250101041A1, “POSITIVE ALLOSTERIC MODULATORS OF THE MUSCARINIC ACETYLCHOLINE RECEPTOR M4” (Vanderbilt University, priority 2022, published 2025).
pEC50: −log10 of the molar value.

Target: T1, human mAChR M4 (Homo sapiens, UniProt P08173)
T1 construct: expressed in transfected cells; host or cells: CHO-K1 (American Type Culture Collection), stably expressing hM4 and Gqi5
T1 sequence (P08173 1-479): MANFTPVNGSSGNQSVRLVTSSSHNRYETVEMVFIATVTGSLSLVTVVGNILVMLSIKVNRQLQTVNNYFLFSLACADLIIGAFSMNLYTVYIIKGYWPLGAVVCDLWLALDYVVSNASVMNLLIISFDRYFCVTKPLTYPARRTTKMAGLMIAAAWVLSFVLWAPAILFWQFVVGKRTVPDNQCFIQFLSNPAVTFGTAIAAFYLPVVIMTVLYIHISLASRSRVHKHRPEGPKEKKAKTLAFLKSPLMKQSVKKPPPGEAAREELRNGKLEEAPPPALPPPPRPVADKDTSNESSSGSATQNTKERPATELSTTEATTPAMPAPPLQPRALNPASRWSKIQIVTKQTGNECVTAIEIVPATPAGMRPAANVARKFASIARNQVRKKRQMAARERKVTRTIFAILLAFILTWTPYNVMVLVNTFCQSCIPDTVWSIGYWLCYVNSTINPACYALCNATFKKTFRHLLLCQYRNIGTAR
Assay: mAChR M4 cell-based functional assay: calcium mobilization (Fluo-4, FDSS), potentiation of EC20 acetylcholine response in hM4-Gqi5 CHO-K1 cells
Details: human M4; for Emax at 30 µM: CHO-K1, % ACh maximum at 30 μM; for pEC50: potentiation of EC20 acetylcholine response, calcium mobilization
How it was run: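 CHO-K1 cells stably co-expressing human M4 and chimeric Gqi5, loaded with Fluo-4 AM (50 min, 37 °C). Compounds in 11-point 1:3 series added first; EC20 acetylcholine added at 144 s and again at 230 s. Calcium read on FDSS at 1 Hz; EC50 and Emax from four-parameter logistic fit of potentiated EC20 response.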

## Cc1cc2nccc(=O)n2nc1N1CCc2ncc(-c3ccc(F)c(Cl)c3)cc2C1 [Compound 1-59, 7-(3-(3-chloro-4-fluorophenyl)-7,8-dihydro-1,6-naphthyridin-6(5H)-yl)-8-methyl-4H-pyrimido[1,2-b]pyridazin-4-one]
  Emax at 30 µM: 99%
  pEC50: 6.61

## COc1ccc(-c2cnc3c(c2)CN(c2nn4c(=O)ccnc4cc2C)CC3)cn1 [Compound 1-60, 7-(3-(6-methoxypyridin-3-yl)-7,8-dihydro-1,6-naphthyridin-6(5H)-yl)-8-methyl-4H-pyrimido[1,2-b]pyridazin-4-one]
  Emax at 30 µM: 104%
  pEC50: 6.85

## Cc1ccc(-c2cnc3c(c2)CN(c2nn4c(=O)ccnc4c(C)c2C)CC3)cn1 [Compound 1-61, 8,9-Dimethyl-7-(3-(6-methylpyridin-3-yl)-7,8-dihydro-1,6-naphthyridin-6(5H)-yl)-4H-pyrimido[1,2-b]pyridazin-4-one]
  Emax at 30 µM: 96%
  pEC50: 7.15

## Cc1c(N2CCc3ncc(-c4cnn(C)c4)cc3C2)nn2c(=O)ccnc2c1C [Compound 1-62, 8,9-dimethyl-7-(3-(1-methyl-1H-pyrazol-4-yl)-7,8-dihydro-1,6-naphthyridin-6(5H)-yl)-4H-pyrimido[1,2-b]pyridazin-4-one]
  Emax at 30 µM: 89%
  pEC50: 6.89

## Cc1c(N2CCc3ncc(-c4ccnn4C)cc3C2)nn2c(=O)ccnc2c1C [Compound 1-63, 8,9-dimethyl-7-(3-(1-methyl-1H-pyrazol-5-yl)-7,8-dihydro-1,6-naphthyridin-6(5H)-yl)-4H-pyrimido[1,2-b]pyridazin-4-one]
  Emax at 30 µM: 97%
  pEC50: 6.69

## Cc1c(N2CCc3ncc(C(F)(F)F)cc3C2)nn2c(=O)ccnc2c1C [Compound 1-64, 8,9-dimethyl-7-(3-(trifluoromethyl)-7,8-dihydro-1,6-naphthyridin-6(5H)-yl)-4H-pyrimido[1,2-b]pyridazin-4-one]
  Emax at 30 µM: 102%
  pEC50: 7.04

## Cc1cncc(-c2cnc3c(c2)CN(c2nn4c(=O)ccnc4cc2C)CC3)c1 [Compound 1-65, 8-methyl-7-(3-(5-methylpyridin-3-yl)-7,8-dihydro-1,6-naphthyridin-6(5H)-yl)-4H-pyrimido[1,2-b]pyridazin-4-one]
  Emax at 30 µM: 70%
  pEC50: 6.18

## Cc1cc2nccc(=O)n2nc1N1CCc2ncc(-c3ccc(C(F)(F)F)nc3)cc2C1 [Compound 1-66, 8-methyl-7-(3-(6-(trifluoromethyl)pyridin-3-yl)-7,8-dihydro-1,6-naphthyridin-6(5H)-yl)-4H-pyrimido[1,2-b]pyridazin-4-one]
  Emax at 30 µM: 77%
  pEC50: 6.08

## Cc1cc2nccc(=O)n2nc1N1CCc2ncc(-c3ccc(C4CC4)nc3)cc2C1 [Compound 1-67, 7-(3-(6-cyclopropylpyridin-3-yl)-7,8-dihydro-1,6-naphthyridin-6(5H)-yl)-8-methyl-4H-pyrimido[1,2-b]pyridazin-4-one]
  Emax at 30 µM: 80%
  pEC50: 6.48

## Cc1cc2nccc(=O)n2nc1N1CCc2ncc(-c3cccnc3)cc2C1 [Compound 1-68, 8-methyl-7-(3-(pyridin-3-yl)-7,8-dihydro-1,6-naphthyridin-6(5H)-yl)-4H-pyrimido[1,2-b]pyridazin-4-one]
  Emax at 30 µM: 84%
  pEC50: 6.45

## Cc1cc(=O)n2nc(N3CCc4ncc(-c5cccnc5F)cc4C3)c(C)cc2n1 [Compound 1-69, 7-(3-(2-fluoropyridin-3-yl)-7,8-dihydro-1,6-naphthyridin-6(5H)-yl)-2,8-dimethyl-4H-pyrimido[1,2-b]pyridazin-4-one]
  Emax at 30 µM: 87%
  pEC50: 6.11

## COc1cncc(-c2cnc3c(c2)CN(c2nn4c(=O)cc(C)nc4cc2C)CC3)c1 [Compound 1-70, 7-(3-(5-methoxypyridin-3-yl)-7,8-dihydro-1,6-naphthyridin-6(5H)-yl)-2,8-dimethyl-4H-pyrimido[1,2-b]pyridazin-4-one]
  Emax at 30 µM: 92%
  pEC50: 6.56

## COc1ccc(-c2cnc3c(c2)CN(c2nn4c(=O)cc(C)nc4cc2C)CC3)cn1 [Compound 1-71, 7-(3-(6-methoxypyridin-3-yl)-7,8-dihydro-1,6-naphthyridin-6(5H)-yl)-2,8-dimethyl-4H-pyrimido[1,2-b]pyridazin-4-one]
  Emax at 30 µM: 90%
  pEC50: 6.84

## Cc1cc(=O)n2nc(N3CCc4ncc(-c5ccc(C6CC6)nc5)cc4C3)c(C)cc2n1 [Compound 1-72, 7-(3-(6-cyclopropylpyridin-3-yl)-7,8-dihydro-1,6-naphthyridin-6(5H)-yl)-2,8-dimethyl-4H-pyrimido[1,2-b]pyridazin-4-one]
  Emax at 30 µM: 75%
  pEC50: 6.76

## Cc1cc(=O)n2nc(N3CCc4ncc(-c5ccc(C(F)(F)F)nc5)cc4C3)c(C)cc2n1 [Compound 1-73, 2,8-dimethyl-7-(3-(6-(trifluoromethyl)pyridin-3-yl)-7,8-dihydro-1,6-naphthyridin-6(5H)-yl)-4H-pyrimido[1,2-b]pyridazin-4-one]
  Emax at 30 µM: 77%
  pEC50: 6.34

## COc1cncc(-c2cnc3c(c2)CN(c2nn4c(=O)cc(C(F)(F)F)nc4cc2C)CC3)c1 [Compound 1-74, 7-(3-(5-methoxypyridin-3-yl)-7,8-dihydro-1,6-naphthyridin-6(5H)-yl)-8-methyl-2-(trifluoromethyl)-4H-pyrimido[1,2-b]pyridazin-4-one]
  Emax at 30 µM: 102%
  pEC50: 6.35

## COc1ccc(-c2cnc3c(c2)CN(c2nn4c(=O)cc(C(F)(F)F)nc4cc2C)CC3)cn1 [Compound 1-75, 7-(3-(6-methoxypyridin-3-yl)-7,8-dihydro-1,6-naphthyridin-6(5H)-yl)-8-methyl-2-(trifluoromethyl)-4H-pyrimido[1,2-b]pyridazin-4-one]
  Emax at 30 µM: 46%
  pEC50: 5.90

## Cc1ccc(-c2cnc3c(c2)CN(c2nn4c(=O)cc(C(=O)NC5(C#N)CC5)nc4cc2C)CC3)cn1 [Compound 1-76, N-(1-cyanocyclopropyl)-8-methyl-7-(3-(6-methylpyridin-3-yl)-7,8-dihydro-1,6-naphthyridin-6(5H)-yl)-4-oxo-4H-pyrimido[1,2-b]pyridazine-2-carboxamide]
  Emax at 30 µM: 79%
  pEC50: 6.83

## Cc1ccc(-c2cnc3c(c2)CN(c2nn4c(=O)cc(C(=O)NCc5cncs5)nc4cc2C)CC3)cn1 [Compound 1-77, 8-Methyl-7-(3-(6-methylpyridin-3-yl)-7,8-dihydro-1,6-naphthyridin-6(5H)-yl)-4-oxo-N-(thiazol-5-ylmethyl)-4H-pyrimido[1,2-b]pyridazine-2-carboxamide]
  Emax at 30 µM: 74%
  pEC50: 6.55

## Cc1ccc(-c2cnc3c(c2)CN(c2nn4c(=O)c(Br)cnc4cc2C)CC3)cn1 [Compound 1-78, 3-bromo-8-methyl-7-(3-(6-methylpyridin-3-yl)-7,8-dihydro-1,6-naphthyridin-6(5H)-yl)-4H-pyrimido[1,2-b]pyridazin-4-one]
  Emax at 30 µM: 79%
  pEC50: 6.82

## Cc1ccc(-c2cnc3c(c2)CN(c2nn4c(=O)cc(C5CC5)nc4cc2C)CC3)cn1 [Compound 1-79, 2-cyclopropyl-8-methyl-7-(3-(6-methylpyridin-3-yl)-7,8-dihydro-1,6-naphthyridin-6(5H)-yl)-4H-pyrimido[1,2-b]pyridazin-4-one]
  Emax at 30 µM: 109%
  pEC50: 7.18

## Cc1ccc(-c2cnc3c(c2)CN(c2nn4c(=O)cc(C(F)(F)F)nc4cc2C)CC3)cn1 [Compound 1-80, 8-methyl-7-(3-(6-methylpyridin-3-yl)-7,8-dihydro-1,6-naphthyridin-6(5H)-yl)-2-(trifluoromethyl)-4H-pyrimido[1,2-b]pyridazin-4-one]
  Emax at 30 µM: 104%
  pEC50: 7.19

## Cc1ccc(-c2cnc3c(c2)CN(c2nn4c(=O)cc(C(F)F)nc4cc2C)CC3)cn1 [Compound 1-81, 2-(difluoromethyl)-8-methyl-7-(3-(6-methylpyridin-3-yl)-7,8-dihydro-1,6-naphthyridin-6(5H)-yl)-4H-pyrimido[1,2-b]pyridazin-4-one]
  Emax at 30 µM: 103%
  pEC50: 7.06

## Cc1ccc(-c2cnc3c(c2)CN(c2nn4c(=O)cc(C)nc4c(C)c2C)CC3)cn1 [Compound 1-82, 2,8,9-trimethyl-7-(3-(6-methylpyridin-3-yl)-7,8-dihydro-1,6-naphthyridin-6(5H)-yl)-4H-pyrimido[1,2-b]pyridazin-4-one]
  Emax at 30 µM: 100%
  pEC50: 6.84

## Cc1ccc(-c2cnc3c(c2)CN(c2nn4c(=O)c(C)c(C)nc4cc2C)CC3)cn1 [Compound 1-83, 2,3,8-trimethyl-7-(3-(6-methylpyridin-3-yl)-7,8-dihydro-1,6-naphthyridin-6(5H)-yl)-4H-pyrimido[1,2-b]pyridazin-4-one]
  Emax at 30 µM: 87%
  pEC50: 6.68

## Cc1ccc(-c2cnc3c(c2)CN(c2nn4c(=O)cc(C(F)(F)F)nc4c(C)c2C)CC3)cn1 [Compound 1-84, 8,9-dimethyl-7-(3-(6-methylpyridin-3-yl)-7,8-dihydro-1,6-naphthyridin-6(5H)-yl)-2-(trifluoromethyl)-4H-pyrimido[1,2-b]pyridazin-4-one]
  Emax at 30 µM: 101%
  pEC50: 6.83
